These results are taken from PubChem BioAssay (NCI).

The structures appear in SMILES notation. Structures can show the parent of a compound that is named as a salt.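 All cell lines were grown in 96-well plates and treated with compound for 48 hours. TGI is the concentration that stops growth completely.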 Where a SMILES comes first, the peptide text is derived from it. The star is where a group is joined. Tfa = O=C(C(F)(F)F)*

Experiment in all cases: NCI tumour cell line growth inhibition, 48 h
The subject of assay [1] is MOLT-4 leukemia.
Assay [2] concerns SNB-75 CNS.
Assay [3] deals with RXF 393 renal.
In assay [4] the test system is OVCAR-5 ovarian.
Assay [5] relates to OVCAR-4 ovarian.
Assay [6] relates to HOP-92 NSCLC.
Assay [7] has as its system SF-295 CNS.
For assay [8], the system named is SK-MEL-5 melanoma.
Assay [9] relates to U251 CNS.
The subject of assay [10] is SK-MEL-2 melanoma.

As to `CS(=O)(=O)c1ccc(/C=N/NC(N)=S)cc1`, the TGI in assay [1], in assay [2], in assay [3], in [4], in assay [5] and in assay [6] was over 100 µM throughout. The TGI in [7], in assay [8] and in [9] was over 100 µM throughout.

With `O=C(O)c1cc2ccccc2c(N=Nc2ccccc2)c1O`, the TGI in assay [1] is over 100 µM; in assay [2], 36 µM; in [3] it was 72.5 µM; in [4], over 100 µM; in [5] it was over 100 µM; in assay [6], over 100 µM. Further, the results for the TGI in assay [7], in assay [8] and in [9] were 25.9 µM, 28.2 µM and 45.1 µM, respectively.

Take `NCC(=O)NC1(c2cc3ccccc3s2)CCCCC1`: the TGI in assay [2] was 83.7 µM; in assay [3] it was over 100 µM; in assay [4], over 100 µM; in [5], over 100 µM; in [6] it was 78.1 µM; in [7], over 100 µM. The TGI in assay [8] was found to be 33.2 µM.

In the case of `O=C(O)CC(NC(=O)C(F)(F)F)C(=O)NC(Cc1ccc(O)cc1)C(=O)O` (stereo not drawn) (Tfa-Asp-Tyr-OH; configuration not given here), the TGI in assay [1], in assay [2], in assay [3], in assay [4], in [6] and in assay [7] was over 50 µM each time. The TGI in assay [8], in [10] and in assay [9] was over 50 µM in each case.

`C/C=C/[C@H]1O[C@@](O)([C@@H](C)[C@H](O)[C@H](C)[C@H]2OC(=O)/C(OC)=C/C(C)=C/[C@@H](C)[C@@H](O)[C@@H](CC)[C@@H](O)[C@H](C)C/C(C)=C/C=C/[C@@H]2OC)C[C@H](OC2CC(O)C(O)C(C)O2)[C@@H]1C` (stereo not given in full): the TGI in assay [1] was under 0.0075 µM; in assay [2], 46 µM; in assay [3], 23.2 µM; in assay [4], 15.1 µM; in assay [5] it was 32 µM; in assay [6], 3.69 µM. The TGI in assay [7] stood at 10.4 µM; in assay [8] it was 0.0828 µM; in [9], 11.4 µM.

As to `CCOC(=O)c1cnn2c1ncc1c(=O)n(NC(N)=O)ccc12`, the TGI in assay [1], in assay [2], in assay [4], in [5], in assay [6] and in assay [7] was over 100 µM in each case. The TGI in assay [8], in assay [10] and in assay [9] was over 100 µM throughout.

Turning to `COc1cc(Cc2cc3c(c(C(=O)O)c2Br)OCO3)cc(OC)c1OC`, the TGI in assay [1], in assay [2], in [4], in assay [5], in assay [6] and in assay [7] was over 100 µM throughout. The TGI in assay [8], in assay [10] and in assay [9] was over 100 µM each time.

`CCC(C)n1c(C)nc2c1C(=O)c1ccccc1C2=O` (stereo not given): the TGI in assay [1], in [2], in assay [3], in assay [5], in assay [6] and in [7] was over 100 µM each time. The TGI in assay [8], in assay [10] and in [9] was over 100 µM in each case.

As to `CC(=O)Nc1ccc(Nc2cc(=O)[nH]c(=O)[nH]2)cc1`, the TGI was 37.4 µM in assay [1]; over 100 µM in assay [2]; over 100 µM in assay [3]; over 100 µM in assay [4]; over 100 µM in [5]; over 100 µM in assay [6]. Besides, the TGI in assay [7], in [8] and in assay [9] was over 100 µM each time.

As to `CN(C)C(Cc1cnc[nH]1)C(=O)N1CCCC1C(N)=O` (stereo not given), the TGI in assay [1], in assay [2], in assay [3], in assay [4], in [5] and in assay [6] was over 100 µM throughout. Besides, the TGI in assay [7], in [8] and in assay [9] was over 100 µM in each case.

Regarding `Cc1ccc(-c2nc(C)c(C(=O)Nc3ccc(Cl)cc3)s2)cc1`, the TGI in assay [1] was over 100 µM; in [2], 28.3 µM; in [4], over 100 µM; in assay [5] it was 49.2 µM; in [6], 70.2 µM; in assay [7], 33.7 µM. In addition, the TGI in assay [8] is 41.7 µM; in assay [10] it was over 100 µM; in assay [9], 48.8 µM.

For `Cc1ccc(C2=Nc3cc(C)c(Cl)cc3S(=O)(=O)NN2)cc1`, the TGI in assay [1], in assay [2], in assay [3], in assay [5], in assay [6] and in [7] was over 100 µM each time. Further, the TGI in assay [8] and in assay [9] was over 100 µM each time.
